# Patent publication US20130281410A1, “METHODS FOR THE TREATMENT OF PSYCHIATRIC DISORDERS” (University of Utah Research Foundation, priority 2010, published 2013)
# Experiments:
# male MDD subjects = experiment: Clinical study of creatine monohydrate in male MDD subjects (HAMD, BDI); type: in vivo, human; conditions: 5 g/day creatine monohydrate as a powder vs placebo, 0 to 8 weeks, FIGS. 1A and 1B
# Experimental: FIGS. 1A and 1B show clinical assessment data of male subjects having MDD upon treatment with placebo (grey lines) or creatine monohydrate (5 g/day, black lines) for 0 to 8 weeks. Clinical assessment was performed using the Hamilton Depressing Rating Scale (FIG. 1A) or the Beck Depression Inventory scale (FIG. 1B).
# A clinical study was performed to study the effect of creatine administration on male MDD subjects. A total of 6 male subjects (mean age of 42.7 years; age range 27 to 63) were enrolled in this study. Among the subjects, 5 subjects (mean age of 38.6 years; age range of 27 to 59) underwent at least one follow-up assessment. Three subjects received 5 g/day creatine monohydrate (as a powder), and two subjects received a placebo. The MDD symptoms of the subjects were assessed using the Hamilton Depression Rating Scale (HAMD) (FIG. 1A) or the Beck Depression Inventory (BDI) (FIG. 1B). The baseline HAMD total score for intention-to-treat sample was 30.4 (standard deviation of 5.1) and the baseline BDI total score was 31 (standard deviation of 11.3).
# [1] = test system: adolescent MDD patients living at high altitude; experiment: Clinical study of creatine monohydrate in adolescent MDD patients living at high altitude (CDRS); type: in vivo, human; conditions: adolescents with MDD, Salt Lake City (4,300 feet), 5 g/day creatine monohydrate as a powder, 1 to 10 weeks
# Experimental: Clinical assessment was performed using the Children's Depression Rating Scale (CDRS).
# A clinical study was performed to determine the effect of creatine on adolescent MDD patients living at high altitude (Salt Lake City; elevation of 4,300 feet). In this study, three adolescents diagnosed as having MDD and living at high altitude were administered 5 g/day of creatine monohydrate (as a powder). The subjects in the study were monitored using the Children's Depression Rating Scale (CDRS). The study was performed for 1 to 10 weeks.
smiles,measurement,setting,value
"CN(CC(=O)O)C(=N)N.O [creatine, creatine monohydrate]","symptoms of MDD, Hamilton Depression Rating Scale (HAMD) and Beck Depression Inventory (BDI)",male MDD subjects,reduces the symptoms of MDD in male subjects
same,symptoms of MDD in patients living at high altitude,[1],reduces the symptoms of MDD in patients living at high altitude
same,Children's Depression Rating Scale (CDRS) score,"[1]; after failing an SSRI trial, FIG. 2",reduction in CDRS score
